{"source": "patent US8241607B2", "about": "“Use of fructose-based compounds for the diagnosis of cancer” (priority 2005, dated 2012)", "key": {"transketolase (TKK)": {"test_system": "transketolase (TKK)", "experiment": "Transketolase activity in PANC-1 lysates (NADH oxidation)", "format": "cell-based", "details": "5.5 mM fructose, 72 h", "procedure": "FIG. 34 depicts quantitation of transketolase activity in pancreatic cancer PANC-1 cells following incubation in 2 mM glucose, 5.5 mM glucose, and 5.5 mM fructose for 24 h, 48 h, and 72 h respectively, in accordance with an embodiment of the present invention.\nThe inventors believe that fructose-treatment of pancreatic cancer cells led to an increase in TKK-driven nucleic acid synthesis, and thus fructose-treatment would result in an increase in either PANC-1 TKK expression and/or activity in comparison to equivalent glucose concentrations. Western blot analysis on protein lysates derived from fructose-, and glucose-treated PANC-1 cells were performed (5.5 mM fructose, and glucose for 24, and 48 h as per previous protocol) using a specific TKK antibody, and compared TKK expression in the fructose-, and glucose-treated PANC-1 cells. As depicted in FIG. 33, TKK expression at 24 h, and 48 h in protein lysates derived from 5.5 mM glucose-treated PANC-1 cells was increased in comparison to expression in 2 mM glucose-treated cells. […] After gentle mixing the absorbance of the mixture was measured at 10 min intervals for 2 h at 340 nm. Transketolase activity was then derived from the difference in absorbance at 10, and 80 minutes, and expressed as nmol/min/million cells. […] Pancreatic cancer proliferation rates were then measured using the MTS assay (FIG. 35)."}, "[1]": {"test_system": "primary pancreatic cancers", "experiment": "BRDU uptake in primary cultures of surgically resected pancreatic cancers", "format": "cell-based, human", "details": "all 5 primary pancreatic cancers; 5.5 mM fructose compared to 5.5 mM glucose, 72 h", "procedure": "FIG. 18 depicts BRDU incorporation by pancreatic cells in accordance with an embodiment of the present invention. Freshly resected pancreatic cancers were mechanically and enzymatically dispersed, and cells were pre-incubated in 2 mM glucose prior to treatment with 5.5 mM glucose or fructose for 72 h. BRDU (10 μM) was added to the medium at 48 h, and BRDU-uptake quantified at 72 h.\nAs immortalized cell-lines, such as PANC-1 pancreatic cancer cells, can become dedifferentiated after repeated passages, and in order to translate these findings in the PANC-1 cells to patients with pancreatic cancer, the inventors also examined proliferative rates in primary cultures of fresh surgically resected pancreatic cancers, following incubation in 2 mM, and 5.5 mM glucose or 5.5 mM fructose. Briefly, after mechanical and enzymatic (trypsin and DNAse) disaggregation, aliquots of tumor cells were seeded in 6-well plates, and incubated in standard DMEM media with 10% fetal bovine serum, and 2 mM glucose, 5.5 mM glucose, or 5.5 mM fructose for 72 h. As before in the PANC-1 experiments, BRDU (10 μM) was added in the […] of incubation in the sugars, following which BRDU-uptake was quantified."}, "MAPK pathway": {"test_system": "MAPK pathway", "experiment": "Western blot of MAPK pathway in breast cancer cells", "format": "cell-based", "procedure": "FIG. 11 depicts increased breast cancer phosphorylated-MEK, phosphorylated Rsk, and phosphorylated CREB in accordance with an embodiment of the present invention. MCF-7 breast cancer cells were incubated in 2 mM glucose, 5 mM glucose or 5 mM fructose for 24 hours, after which Western blot analysis on total protein lysates was employed to examine components of the MAP kinase pathway. […] Total MEK, Rsk, and CREB levels, and β-actin served as loading controls.\nAlthough several signal transduction pathways are likely involved in the fructose-mediated enhanced breast cancer growth and while not wishing to be bound by any particular theory, the inventors believe that the MAP-kinase pathway is involved. The inventors have used Western blot analysis to examine the MAPK pathway in breast cancer cells incubated in 2 mM glucose, 5.5 mM glucose, and 5.5 mM fructose for 48 hours. […] Activation of MEK, and subsequently ERK results in phosphorylation of p90^Rsk, which leads to transcriptional activation of CREB and AP1, which bind to cAMP or AP1 response elements respectively, activating gene transcription and promoting cellular growth."}, "[2]": {"details": "breast cancer cells, 5.5 mM fructose, 24 h, vs 5.5 and 2 mM glucose"}}}
{"smiles": "O=C(CO)[C@@H](O)[C@H](O)[C@H](O)CO", "note": "[fructose]", "values": [{"measurement": "TKK activity in comparison to 5.5 mM glucose-treated cells", "setting": "transketolase (TKK)", "value": 1.7, "unit": "fold higher"}, {"measurement": "proliferative rates (BRDU-uptake)", "setting": "[1]", "value": "higher proliferative rates"}, {"measurement": "phospho-MEK (pMEK) expression", "setting": "MAPK pathway; MCF-7 and MDA-MB231, 5.5 mM fructose vs 5.5 and 2 mM glucose", "value": "increased expression"}, {"measurement": "phospho-CREB (pCREB)", "setting": "MAPK pathway; [2]", "value": "increased"}, {"measurement": "phospho-Rsk (pRsk)", "setting": "MAPK pathway; [2]", "value": "increased"}]}
